Test results from US20230085307A1, “PYRIDAZINONE COMPOUND AND HERBICIDE” (NISSAN CHEMICAL CORPORATION, priority 2019, published 2023).

Assays:
late watergrass = experiment: Test Example 1: herbicidal activity, application before weed generation under submerged conditions (Table 16, symbol A); type: in vivo, late watergrass (Echinochloa oryzicola); conditions: 320 g/ha applied herbicide
Summary of the method: (§1)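 Alluvial soil was flooded to 4 cm depth, weed seeds were sown mixed and 2.5-leaf rice seedlings were transplanted. On sowing day, the compound's emulsion, diluted in water to a set dose, was applied to the water surface. Plants grew at 25–30 °C and were scored 0–5 after three weeks.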

Japanese bulrush = experiment: Test Example 1: herbicidal activity, application before weed generation under submerged conditions (Table 16, symbol B); type: in vivo, Japanese bulrush (Schoenoplectus juncoides); conditions: 320 g/ha applied herbicide
Summary of the method: as §1

oval-leafed pondweed = experiment: Test Example 1: herbicidal activity, application before weed generation under submerged conditions (Table 16, symbol C); type: in vivo, oval-leafed pondweed (Monochoria vaginalis); conditions: 320 g/ha applied herbicide
Summary of the method: as §1

barnyard grass [1] = experiment: Test Example 3: herbicidal effect by foliage application, Wagner pot (Table 18, symbol H); type: in vivo, barnyard grass (Echinochloa crus-galli)
Summary of the method: (§2)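 Plants were sown in alluvial soil held under 0.1–0.5 cm standing water and grown 14 days in a greenhouse at 25–30 °C. An emulsifiable formulation, water-diluted to the set dose, was then sprayed onto the foliage, and effects were scored three weeks later using previously defined criteria.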

Chinese sprangletop = experiment: Test Example 3: herbicidal effect by foliage application, Wagner pot (Table 18, symbol D); type: in vivo, chinese sprangletop (Leptochloa chinensis)
Summary of the method: as §2

rice flat sedge = experiment: Test Example 3: herbicidal effect by foliage application, Wagner pot (Table 18, symbol E); type: in vivo, rice flat sedge (Cyperus iria)
Summary of the method: as §2

southern crabgrass = experiment: Test Example 5: herbicidal effect by foliage application, plastic box (Table 20, symbol F); type: in vivo, southern crabgrass (Digitaria ciliaris); conditions: foliage application, 320 g/ha, evaluated three weeks after application
Summary of the method: (§3)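 Foliar spray test: emulsion formulation diluted in water to a set application rate, sprayed onto 14-day-old plants raised in diluvial soil at 25° C to 30° C under glass. Both herbicidal effect and crop effect rated visually three weeks later.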

green foxtail = experiment: Test Example 5: herbicidal effect by foliage application, plastic box (Table 20, symbol G); type: in vivo, green foxtail (Setaria viridis); conditions: foliage application, 320 g/ha, evaluated three weeks after application
Summary of the method: as §3

barnyard grass [2] = experiment: Test Example 5: herbicidal effect by foliage application, plastic box (Table 20, symbol H); type: in vivo, barnyard grass (Echinochloa crus-galli); conditions: foliage application, 320 g/ha, evaluated three weeks after application
Summary of the method: as §3

wild oat = experiment: Test Example 5: herbicidal effect by foliage application, plastic box (Table 20, symbol I); type: in vivo, wild oat (Avena fatua); conditions: foliage application, 320 g/ha, evaluated three weeks after application
Summary of the method: as §3

blackgrass = experiment: Test Example 5: herbicidal effect by foliage application, plastic box (Table 20, symbol J); type: in vivo, blackgrass (Alopecurus myosuroides); conditions: foliage application, 320 g/ha, evaluated three weeks after application
Summary of the method: as §3

Italian ryegrass = experiment: Test Example 5: herbicidal effect by foliage application, plastic box (Table 20, symbol K); type: in vivo, Italian ryegrass (Lolium multiflorum); conditions: foliage application, 320 g/ha, evaluated three weeks after application
Summary of the method: as §3

windgrass = experiment: Test Example 5: herbicidal effect by foliage application, plastic box (Table 20, symbol L); type: in vivo, windgrass (Apera spica-venti); conditions: foliage application, 320 g/ha, evaluated three weeks after application
Summary of the method: as §3

velvetleaf = experiment: Test Example 5: herbicidal effect by foliage application, plastic box (Table 20, symbol M); type: in vivo, velvetleaf (Abutilon theophrasti); conditions: foliage application, 320 g/ha, evaluated three weeks after application
Summary of the method: as §3

redroot pigweed = experiment: Test Example 5: herbicidal effect by foliage application, plastic box (Table 20, symbol N); type: in vivo, redroot pigweed (Amaranthus retroflexus); conditions: foliage application, 320 g/ha, evaluated three weeks after application
Summary of the method: as §3

lambsquarters = experiment: Test Example 5: herbicidal effect by foliage application, plastic box (Table 20, symbol O); type: in vivo, lambsquarters (Chenopodium album); conditions: foliage application, 320 g/ha, evaluated three weeks after application
Summary of the method: as §3

chickweed = experiment: Test Example 5: herbicidal effect by foliage application, plastic box (Table 20, symbol P); type: in vivo, common chickweed (Stellaria media); conditions: foliage application, 320 g/ha, evaluated three weeks after application
Summary of the method: as §3

persian speedwell = experiment: Test Example 5: herbicidal effect by foliage application, plastic box (Table 20, symbol R); type: in vivo, Persian speedwell (Veronica persica); conditions: foliage application, 320 g/ha, evaluated three weeks after application
Summary of the method: as §3

[3] = amount of applied herbicide 320 g/ha

| Compound | Herbicidal effect on A: late watergrass (grade 0-5) (late watergrass) | Herbicidal effect on B: Japanese bulrush (grade 0-5) (Japanese bulrush) | Herbicidal effect on C: oval-leafed pondweed (grade 0-5) (oval-leafed pondweed) | herbicidal effect on F: southern crabgrass (southern crabgrass) | herbicidal effect on G: green foxtail (green foxtail) | herbicidal effect on H: barnyard grass (barnyard grass [2]) | herbicidal effect on I: wild oat (wild oat) | herbicidal effect on J: blackgrass (blackgrass) | herbicidal effect on K: Italian ryegrass (Italian ryegrass) | herbicidal effect on L: windgrass (windgrass) | herbicidal effect on M: velvetleaf (velvetleaf) | herbicidal effect on N: redroot pigweed (redroot pigweed) | herbicidal effect on O: lambsquarters (lambsquarters) | herbicidal effect on P: chickweed (chickweed) | herbicidal effect on R: persian speedwell (persian speedwell) | also measured |
| --- | --- | --- | --- | --- | --- | --- | --- | --- | --- | --- | --- | --- | --- | --- | --- | --- |
| CCCC(=O)Oc1c(C)nn(C)c(=O)c1-c1c(-c2ccc(Oc3ccccc3)cc2)sc2ccc(F)cc12 [2-073] | 3 (Herbicidal rate of 40% or more and less than 70%) | 0 (Herbicidal rate of 5% or less (almost no effect)) | 0 (Herbicidal rate of 5% or less (almost no effect)) | 0 (Herbicidal rate of 5% or less (almost no effect)) | 2 (Herbicidal rate of 20% or more and less than 40%) | 1 (Herbicidal rate of 5% or more and less than 20%) | 0 (Herbicidal rate of 5% or less (almost no effect)) | 0 (Herbicidal rate of 5% or less (almost no effect)) | 0 (Herbicidal rate of 5% or less (almost no effect)) | 0 (Herbicidal rate of 5% or less (almost no effect)) | 3 (Herbicidal rate of 40% or more and less than 70%) | 3 (Herbicidal rate of 40% or more and less than 70%) | 3 (Herbicidal rate of 40% or more and less than 70%) | 5 (Herbicidal rate of 90% or more (almost completely withered)) | 4 (Herbicidal rate of 70% or more and less than 90%) | herbicidal effect on H (barnyard grass), rating 0-5 (barnyard grass [1]; 320 g/ha): 4 (Herbicidal rate of 70% or more and less than 90%); herbicidal effect on D (Chinese sprangletop), rating 0-5 (Chinese sprangletop; 320 g/ha): 3 (Herbicidal rate of 40% or more and less than 70%); herbicidal effect on E (rice flat sedge), rating 0-5 (rice flat sedge; 320 g/ha): 3 (Herbicidal rate of 40% or more and less than 70%) |
| COc1ccc(Br)cc1-c1sc2ccc(Br)cc2c1-c1c(O)c(C)nn(C)c1=O [2-129] | 5 (Herbicidal rate of 90% or more (almost completely withered)) | 0 (Herbicidal rate of 5% or less (almost no effect)) | 0 (Herbicidal rate of 5% or less (almost no effect)) | 0 (Herbicidal rate of 5% or less (almost no effect)) | 0 (Herbicidal rate of 5% or less (almost no effect)) | 0 (Herbicidal rate of 5% or less (almost no effect)) | 0 (Herbicidal rate of 5% or less (almost no effect)) | 0 (Herbicidal rate of 5% or less (almost no effect)) | 0 (Herbicidal rate of 5% or less (almost no effect)) | 0 (Herbicidal rate of 5% or less (almost no effect)) | 0 (Herbicidal rate of 5% or less (almost no effect)) | 0 (Herbicidal rate of 5% or less (almost no effect)) | 2 (Herbicidal rate of 20% or more and less than 40%) | 0 (Herbicidal rate of 5% or less (almost no effect)) | 0 (Herbicidal rate of 5% or less (almost no effect)) | herbicidal effect on H: barnyard grass (barnyard grass [1]; [3]): 3 (Herbicidal rate of 40% or more and less than 70%); herbicidal effect on D: Chinese sprangletop (Chinese sprangletop; [3]): 0 (Herbicidal rate of 5% or less (almost no effect)); herbicidal effect on E: rice flat sedge (rice flat sedge; [3]): 0 (Herbicidal rate of 5% or less (almost no effect)) |
